Measurements published in BindingDB's records for doi:10.1021/jm00009a001 (Cns Research, 1995).

molecular target: Metabotropic glutamate receptor 5 (Rattus norvegicus, UniProt P31424); assay: Concentration for half maximal activation of metabotropic glutamate mGluR5a in rat
Sequence (P31424 whole entry): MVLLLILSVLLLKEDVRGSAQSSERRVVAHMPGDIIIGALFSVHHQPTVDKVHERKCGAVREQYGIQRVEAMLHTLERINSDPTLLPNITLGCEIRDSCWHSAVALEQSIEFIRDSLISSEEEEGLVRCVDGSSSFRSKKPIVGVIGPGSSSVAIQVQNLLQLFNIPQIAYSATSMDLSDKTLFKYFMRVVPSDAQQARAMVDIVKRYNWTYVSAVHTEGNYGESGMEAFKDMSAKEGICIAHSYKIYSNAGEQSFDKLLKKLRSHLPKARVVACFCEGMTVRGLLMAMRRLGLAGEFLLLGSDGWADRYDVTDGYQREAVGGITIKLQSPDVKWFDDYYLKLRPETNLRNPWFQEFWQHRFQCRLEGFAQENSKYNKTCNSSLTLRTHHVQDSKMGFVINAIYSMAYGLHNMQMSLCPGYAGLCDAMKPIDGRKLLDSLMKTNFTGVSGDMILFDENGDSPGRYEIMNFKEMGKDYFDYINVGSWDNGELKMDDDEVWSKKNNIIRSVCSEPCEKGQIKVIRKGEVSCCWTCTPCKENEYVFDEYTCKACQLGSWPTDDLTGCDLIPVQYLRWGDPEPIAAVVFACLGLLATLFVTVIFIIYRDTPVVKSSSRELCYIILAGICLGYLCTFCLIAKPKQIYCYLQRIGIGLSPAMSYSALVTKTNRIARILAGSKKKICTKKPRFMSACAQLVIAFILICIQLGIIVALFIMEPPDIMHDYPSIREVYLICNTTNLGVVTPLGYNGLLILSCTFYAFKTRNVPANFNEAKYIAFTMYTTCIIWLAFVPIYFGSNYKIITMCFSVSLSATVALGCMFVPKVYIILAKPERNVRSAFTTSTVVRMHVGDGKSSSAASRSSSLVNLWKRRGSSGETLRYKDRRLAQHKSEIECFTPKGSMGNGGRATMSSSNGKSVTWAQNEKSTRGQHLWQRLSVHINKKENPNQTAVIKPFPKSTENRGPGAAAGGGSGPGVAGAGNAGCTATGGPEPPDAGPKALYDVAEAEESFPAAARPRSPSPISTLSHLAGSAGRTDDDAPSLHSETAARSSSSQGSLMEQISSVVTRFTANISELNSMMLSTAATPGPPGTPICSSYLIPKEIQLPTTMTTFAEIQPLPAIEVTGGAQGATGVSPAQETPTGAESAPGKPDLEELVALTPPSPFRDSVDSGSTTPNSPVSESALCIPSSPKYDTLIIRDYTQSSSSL

Row | SMILES | EC50 [µM]
1 | N[C@@H](CCC(=O)O)C(=O)O [L-Glutamic acid] | 10
2 | N[C@@H](Cn1oc(=O)[nH]c1=O)C(=O)O [2-amino-3-(3,5-dioxo[1,2,4]oxadiazolidin-2-yl)propionic acid] | 0.3
3 | N[C@H](C(=O)O)c1cc(=O)[nH]o1 [(S)-Amino-(3-oxo-2,3-dihydro-isoxazol-5-yl)-acetic acid] | 10
4 | N[C@@]1(C(=O)O)CC[C@@H](C(=O)O)C1 [SMR001230688] | 50
